Laboratory results from US11744815B1, “Pharmaceutical composition of dimethylguanidino valeric acid and plant flavonoids for treating chronic inflammatory diseases and cancer” (priority 2022, dated 2023).
Entries after “also recorded” stand apart in the source; their conditions may differ.

What was measured:
Jurkat cells = experiment: T cell leukemia model, Jurkat cells injected into tail vein of mice; type: in vivo, NSG/SCID mice; settings: 700 μg/mouse i.p.
Protocol: The next experiment tested whether DMGV can eliminate cancer cells in vivo. […] After 2 weeks of the injection, the level of Jurkat cells in the peripheral blood reached around 60% of the total leukocytes. The model mice were injected with either PBS (Control) or DMGV (700 μg/mouse intraperitoneal injection, i.p.) for 2 weeks as shown in FIG. 3B.

activated T cells [1] = experiment: Energy metabolism by Seahorse assay; type: cell-based, mouse
Source text: The invention tested if DMGV relied on glycolysis to suppress cell survival.

human T cells = experiment: Mitochondrial ROS by flow cytometry using CellROX Green, human T cells; type: cell-based
Source text: (§1) The invention further investigated how DMGV suppresses cell proliferation and survival.

[2] = system: Jurkat (Human T lymphocytic leukemia cell lines); experiment: Survival of hematological cancer cell line Jurkat; type: cell-based
[3] = system: THP-1 (Acute monocytic leukemia cell lines); experiment: Survival of hematological cancer cell line THP-1; type: cell-based
[4] = system: PC-3 (Human prostate cancer cell lines); experiment: Solid tumor cell survival by CCK-8 after 2 days, PC-3; type: cell-based
Protocol: (§2) In example one, pharmaceutical composition was screened and discovered natural small molecules that inhibit T cell survival and proliferation to use as therapeutics for chronic inflammatory diseases and cancers as taught in FIG. 1, T cells were stimulated with or without the indicated amount of DMGV and survival was measured by flow cytometry after 3 days. […] Solid tumor cancer cell lines were incubated with different doses of DMGV or 5-FU (5-fluorouracil), and cells survival was measured by CCK-8 after 2 days.

[5] = system: HL-60 (Acute myeloid leukemia M3 cell lines); experiment: Survival of hematological cancer cell line HL-60; type: cell-based
activated T cells [6] = experiment: T cell survival by flow cytometry after 3 days; type: cell-based; settings: stimulated with indicated amount of DMGV
Protocol: as §2

mouse T cells [7] = experiment: Mitochondrial ROS by flow cytometry using CellROX Green, mouse T cells; type: cell-based
Source text: as §1

Jurkat T cells = experiment: Mitochondrial ROS by flow cytometry using CellROX Green, Jurkat T cells; type: cell-based, human
Protocol: as §1
In order to locate the cellular compartment of ROS generated by DMGV, Jurkat T cells were incubated with the mitochondria-specific ROS inhibitor MitoQ (100 nM) for 15 min before stimulation with DMGV (504) for ROS measurement.
(§3) As certain flavonoids are known to active MCU, we tested whether DMGV and the flavonoids activate MCU in the same manner. Jurkat T cells were treated with the flavonoids [kaempferol (5 μM), quercetin (25 μM), or daidzein (5 μM)]. […] The molecular docking simulator SwissDock predicted that the flavonoids and DMGV bind to MCU in a same pocket.

[8] = system: K-562 (Human chronic myeloid leukemia cell lines); experiment: Survival of hematological cancer cell line K-562; type: cell-based
AGXT2^−/− T cells = experiment: ROS induction in AGXT2-KO T cells; type: cell-based, mice; settings: ADMA 10 μM, SDMA 10 μM, DMGV (504)
Protocol: DMGV is converted from asymmetric dimethylarginine (ADMA) or symmetric dimethylarginine (SDMA) by alanine-glyoxylate aminotransferase 2 (AGXT2) in the mitochondria whereas ADMA or SDMA is metabolized to L-citrulline in the cytosol as shown in FIG. 6A. In order to investigate the role of DMGV in T cells, we generated AGXT2-KO (AGXT2^−/−) mice using Crispr/Cas9 technology according to FIG. 6B. Neither ADMA (10 μM) or SDMA (10 μM) induce ROS in AGXT2^−/− T cells but DMGV (504) still does, an evidence that SDMA or ADMA induces ROS only when they are converted to DMGV (FIG. 6C).

autoimmune arthritis = experiment: Chronic autoimmune arthritis in SKG mice accelerated by laminarian; type: in vivo; settings: i.p. 750 μg/mouse, twice a week, up to 50 days, start at score 8
Source text: In the second model, SKG mice harbor a point mutation in ZAP-70^W163C and Develop Chronic autoimmune arthritis similar to human RA due to aberrant T cell activation. The disease can be accelerated by injection of […].

[9] = system: MCU mutants deleted of Ile127, V135, or Ile127 and V135; experiment: MCU deletion mutants transfected to MCU KO cells; type: cell-based
Source text: To test whether Ile127 and V135 are important for these compounds to activate MCU, we generated 3 different MCU mutants deleted of Ile127, V135, or Ile127 and V135. These MCU mutants were transfected to MCU KO cells and stimulated with kaempferol, daidzein, quercetin, or DMGV.

mouse T cells [10] = experiment: Mouse T cell survival in RPMI with or without glucose, 4 days; type: cell-based
Protocol: In order to test the effects of glycolysis on the DMGV function to inhibit survival, mouse T cells were activated with or without DMGV in RPMI with or without glucose for 4 days and the survival rates were measured by flow cytometry. […] Oxidative phosphorylation uses pyruvate, an end product of glycolysis, and thus a diminished glycolysis can decrease oxidative phosphorylation.

MCU = target: T1, MCU (Homo sapiens, UniProt Q8NE86); experiment: Mitochondrial calcium influx in Jurkat cells expressing Mito-GEM-GECO; type: cell-based; settings: Jurkat cells, Mito-GEM-GECO
T1 construct: endogenous in cells; host or cells: Jurkat T cells
T1 sequence (Q8NE86 51-351): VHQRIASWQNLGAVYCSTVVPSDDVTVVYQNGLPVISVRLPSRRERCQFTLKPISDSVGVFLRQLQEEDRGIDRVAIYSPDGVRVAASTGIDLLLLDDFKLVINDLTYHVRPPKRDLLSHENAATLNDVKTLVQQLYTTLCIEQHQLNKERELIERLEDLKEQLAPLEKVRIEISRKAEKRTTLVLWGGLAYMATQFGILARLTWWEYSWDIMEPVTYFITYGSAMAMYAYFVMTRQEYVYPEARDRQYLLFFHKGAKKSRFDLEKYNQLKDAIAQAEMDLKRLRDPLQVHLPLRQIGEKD
T1 sequence (Q9H4I9 48-107 partner limits assumed): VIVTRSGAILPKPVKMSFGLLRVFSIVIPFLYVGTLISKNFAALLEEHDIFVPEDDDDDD
Protocol: As a sudden influx of calcium to the mitochondria can cause ROS induction, we tested whether DMGV regulates calcium flux to induce ROS. Calcium flux was measured by flow cytometry using the calcium indicator Fluo-8. While stimulation of T cell receptor (TCR) by a stimulatory antibody triggered calcium release from ER (efflux), which in turn induced calcium influx from the outside to cytosol (influx). […] Because of the close proximity between ER and mitochondria, calcium efflux from ER leads to calcium import to the mitochondria, which can be mediated by MCU.
as §3

With dimethylguanidino valeric acid [DMGV] the “Jurkat cells in the peripheral blood” value (Jurkat cells; after 2 weeks of treatment) was “completely eliminated Jurkat cells”, the cancer-induced death (Jurkat cells; after 4 weeks of treatment) was “prevented the cancer-induced death” and the glycolysis (activated T cells [1]) was “significantly inhibited”. For the same substance, the oxidative phosphorylation (activated T cells [1]) was “significantly inhibited”, the “induction of mitochondrial ROS” value (human T cells) was “rapidly induces mitochondrial ROS” and the “survival of Jurkat cells” value [2] was “suppresses survival”. The “survival of THP-1 cells” value [3] was “suppresses survival”, the “proliferation of PC-3” value [4] was “suppresses proliferation” and the “survival of HL-60 cells” value [5] was “suppresses survival”. The “survival and proliferation of activated T cells” value (activated T cells [6]) was “inhibit the survival and proliferation of activated T cells”, the “induction of mitochondrial ROS” value (mouse T cells [7]) was “rapidly induces mitochondrial ROS” and the “induction of mitochondrial ROS” value (Jurkat T cells; Jurkat T cells) was “rapidly induces mitochondrial ROS”. For the same substance, the “ROS induction in glucose-free medium” value (Jurkat T cells; Jurkat T cells in RPMI without glucose for 24 h) was “does not induce ROS”, the “dependence of DMGV-induced ROS on MCU” value (Jurkat T cells; Ru360 or MCU KO) was “dependent on MCU” and the “survival of K-562 cells” value [8] was “suppresses survival”. For the same substance, the “ROS induction in AGXT2^−/− T cells” value (AGXT2^−/− T cells) was “still does”, the arthritis score (autoimmune arthritis) was “significantly decreased the arthritis score” and the “dependence of MCU activation on Ile127” value ([9]; MCU mutant deleted of Ile127 in MCU KO cells) was “completely; also recorded: dependent mostly on Ile127”. The “dependence of MCU activation on V135” value ([9]; MCU mutant deleted of V135 in MCU KO cells) was “independent on Va1135”, the “T cell survival in glucose-free culture” value (mouse T cells [10]) was “no longer affected T cell survival” and the “calcium influx to the mitochondria” value (MCU) was “induces calcium influx to the mitochondria”.
